The numbers were not newly measured in US20240365792A1, “Pest Control Formulations and Uses Thereof” (priority 2021, published 2024), which cites them from elsewhere.

For series [1] the following is noted: direct application to the skin.
For series [2], the system named is insects. The following applies: compared with DEET.
Series [3] concerns salamander larvae. The settings on record: in vivo.
In series [4] the target is acetylcholinesterase (Homo sapiens, UniProt P22303). The settings on record: in humans.
Chain of acetylcholinesterase (P22303 32-614): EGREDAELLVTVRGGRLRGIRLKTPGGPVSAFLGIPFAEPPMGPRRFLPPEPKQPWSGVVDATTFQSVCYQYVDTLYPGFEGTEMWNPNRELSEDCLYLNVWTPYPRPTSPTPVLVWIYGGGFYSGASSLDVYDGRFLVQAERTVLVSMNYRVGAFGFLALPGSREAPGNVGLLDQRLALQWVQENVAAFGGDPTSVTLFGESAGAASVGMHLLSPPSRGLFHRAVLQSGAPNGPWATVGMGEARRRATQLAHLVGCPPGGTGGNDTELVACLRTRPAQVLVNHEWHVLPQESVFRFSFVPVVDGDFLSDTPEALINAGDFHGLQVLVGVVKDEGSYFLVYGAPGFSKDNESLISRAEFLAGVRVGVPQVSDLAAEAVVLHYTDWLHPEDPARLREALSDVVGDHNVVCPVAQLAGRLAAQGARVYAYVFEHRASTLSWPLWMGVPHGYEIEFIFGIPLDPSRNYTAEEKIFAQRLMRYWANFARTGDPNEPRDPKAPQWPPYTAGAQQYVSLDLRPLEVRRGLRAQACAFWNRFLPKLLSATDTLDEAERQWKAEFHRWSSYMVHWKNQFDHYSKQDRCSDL

Turning to `CCC(C)OC(=O)N1CCCCC1CCO` (centres unmarked) [icaridin], the irritancy result in series [1] is recorded as “less irritating than DEET”. The “effectiveness at repelling insects” value in series [2] was “as effective as DEET”. For the same compound, the “toxicity to salamander larvae” value in series [3] is reported as “toxic to salamander larvae”.

Consider `CCN(CC)C(=O)c1cccc(C)c1` [DEET, N,N-diethyl-3-methylbenzamide], for which, in series [1], the irritancy result is given as “act as an irritant”. Further, the inhibition of acetylcholinesterase entry in series [4] is listed as “inhibit acetylcholinesterase”.
